Data published in patent US12187742B2 (XRAD Therapeutics, Inc., priority 2018, dated 2025).
Where a name gives a salt, the structure may show the parent alone.

How the values were obtained:
ATM = ATM (Homo sapiens (Human), UniProt Q13315); assay: ATM in Cell Western Assay (pKAP1 in etoposide-treated MCF-7 cells); format: cell-based
Outline: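 Cells received compounds in a 10-dose, 3-fold series from a 1 μM final top concentration, then 100 μM etoposide, for 1 hr at 37° C. They were then fixed with paraformaldehyde and permeabilized with 0.1% Triton X-100. After immunostaining, plates were scanned on an infrared imager.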

DNA-PK = DNA-PK (Homo sapiens (Human), UniProt P78527); assay: DNA-PK Enzyme-Linked Immunosorbent Assay (phosphorylation of GST-p53 (1-101) peptide); format: biochemical; settings: ELISA
Outline: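 ELISA with plate-bound GST-p53 (1-101) phosphorylated by DNA-PK (0.1 μg/mL final) with 20 μM ATP for 1 h at 25 °C. Compounds tested over 10 3-fold doses from 100 nM top final. Phospho-p53 Ser15 detected by antibody, HRP and TMB, absorbance at 450 nm.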

[1] = pKAP1 in etoposide-treated MCF-7 cells
[2] = MCF-7 cells, etoposide 100 μM, 1 hr, pKAP1 readout

Chain of ATM (Q13315 whole entry): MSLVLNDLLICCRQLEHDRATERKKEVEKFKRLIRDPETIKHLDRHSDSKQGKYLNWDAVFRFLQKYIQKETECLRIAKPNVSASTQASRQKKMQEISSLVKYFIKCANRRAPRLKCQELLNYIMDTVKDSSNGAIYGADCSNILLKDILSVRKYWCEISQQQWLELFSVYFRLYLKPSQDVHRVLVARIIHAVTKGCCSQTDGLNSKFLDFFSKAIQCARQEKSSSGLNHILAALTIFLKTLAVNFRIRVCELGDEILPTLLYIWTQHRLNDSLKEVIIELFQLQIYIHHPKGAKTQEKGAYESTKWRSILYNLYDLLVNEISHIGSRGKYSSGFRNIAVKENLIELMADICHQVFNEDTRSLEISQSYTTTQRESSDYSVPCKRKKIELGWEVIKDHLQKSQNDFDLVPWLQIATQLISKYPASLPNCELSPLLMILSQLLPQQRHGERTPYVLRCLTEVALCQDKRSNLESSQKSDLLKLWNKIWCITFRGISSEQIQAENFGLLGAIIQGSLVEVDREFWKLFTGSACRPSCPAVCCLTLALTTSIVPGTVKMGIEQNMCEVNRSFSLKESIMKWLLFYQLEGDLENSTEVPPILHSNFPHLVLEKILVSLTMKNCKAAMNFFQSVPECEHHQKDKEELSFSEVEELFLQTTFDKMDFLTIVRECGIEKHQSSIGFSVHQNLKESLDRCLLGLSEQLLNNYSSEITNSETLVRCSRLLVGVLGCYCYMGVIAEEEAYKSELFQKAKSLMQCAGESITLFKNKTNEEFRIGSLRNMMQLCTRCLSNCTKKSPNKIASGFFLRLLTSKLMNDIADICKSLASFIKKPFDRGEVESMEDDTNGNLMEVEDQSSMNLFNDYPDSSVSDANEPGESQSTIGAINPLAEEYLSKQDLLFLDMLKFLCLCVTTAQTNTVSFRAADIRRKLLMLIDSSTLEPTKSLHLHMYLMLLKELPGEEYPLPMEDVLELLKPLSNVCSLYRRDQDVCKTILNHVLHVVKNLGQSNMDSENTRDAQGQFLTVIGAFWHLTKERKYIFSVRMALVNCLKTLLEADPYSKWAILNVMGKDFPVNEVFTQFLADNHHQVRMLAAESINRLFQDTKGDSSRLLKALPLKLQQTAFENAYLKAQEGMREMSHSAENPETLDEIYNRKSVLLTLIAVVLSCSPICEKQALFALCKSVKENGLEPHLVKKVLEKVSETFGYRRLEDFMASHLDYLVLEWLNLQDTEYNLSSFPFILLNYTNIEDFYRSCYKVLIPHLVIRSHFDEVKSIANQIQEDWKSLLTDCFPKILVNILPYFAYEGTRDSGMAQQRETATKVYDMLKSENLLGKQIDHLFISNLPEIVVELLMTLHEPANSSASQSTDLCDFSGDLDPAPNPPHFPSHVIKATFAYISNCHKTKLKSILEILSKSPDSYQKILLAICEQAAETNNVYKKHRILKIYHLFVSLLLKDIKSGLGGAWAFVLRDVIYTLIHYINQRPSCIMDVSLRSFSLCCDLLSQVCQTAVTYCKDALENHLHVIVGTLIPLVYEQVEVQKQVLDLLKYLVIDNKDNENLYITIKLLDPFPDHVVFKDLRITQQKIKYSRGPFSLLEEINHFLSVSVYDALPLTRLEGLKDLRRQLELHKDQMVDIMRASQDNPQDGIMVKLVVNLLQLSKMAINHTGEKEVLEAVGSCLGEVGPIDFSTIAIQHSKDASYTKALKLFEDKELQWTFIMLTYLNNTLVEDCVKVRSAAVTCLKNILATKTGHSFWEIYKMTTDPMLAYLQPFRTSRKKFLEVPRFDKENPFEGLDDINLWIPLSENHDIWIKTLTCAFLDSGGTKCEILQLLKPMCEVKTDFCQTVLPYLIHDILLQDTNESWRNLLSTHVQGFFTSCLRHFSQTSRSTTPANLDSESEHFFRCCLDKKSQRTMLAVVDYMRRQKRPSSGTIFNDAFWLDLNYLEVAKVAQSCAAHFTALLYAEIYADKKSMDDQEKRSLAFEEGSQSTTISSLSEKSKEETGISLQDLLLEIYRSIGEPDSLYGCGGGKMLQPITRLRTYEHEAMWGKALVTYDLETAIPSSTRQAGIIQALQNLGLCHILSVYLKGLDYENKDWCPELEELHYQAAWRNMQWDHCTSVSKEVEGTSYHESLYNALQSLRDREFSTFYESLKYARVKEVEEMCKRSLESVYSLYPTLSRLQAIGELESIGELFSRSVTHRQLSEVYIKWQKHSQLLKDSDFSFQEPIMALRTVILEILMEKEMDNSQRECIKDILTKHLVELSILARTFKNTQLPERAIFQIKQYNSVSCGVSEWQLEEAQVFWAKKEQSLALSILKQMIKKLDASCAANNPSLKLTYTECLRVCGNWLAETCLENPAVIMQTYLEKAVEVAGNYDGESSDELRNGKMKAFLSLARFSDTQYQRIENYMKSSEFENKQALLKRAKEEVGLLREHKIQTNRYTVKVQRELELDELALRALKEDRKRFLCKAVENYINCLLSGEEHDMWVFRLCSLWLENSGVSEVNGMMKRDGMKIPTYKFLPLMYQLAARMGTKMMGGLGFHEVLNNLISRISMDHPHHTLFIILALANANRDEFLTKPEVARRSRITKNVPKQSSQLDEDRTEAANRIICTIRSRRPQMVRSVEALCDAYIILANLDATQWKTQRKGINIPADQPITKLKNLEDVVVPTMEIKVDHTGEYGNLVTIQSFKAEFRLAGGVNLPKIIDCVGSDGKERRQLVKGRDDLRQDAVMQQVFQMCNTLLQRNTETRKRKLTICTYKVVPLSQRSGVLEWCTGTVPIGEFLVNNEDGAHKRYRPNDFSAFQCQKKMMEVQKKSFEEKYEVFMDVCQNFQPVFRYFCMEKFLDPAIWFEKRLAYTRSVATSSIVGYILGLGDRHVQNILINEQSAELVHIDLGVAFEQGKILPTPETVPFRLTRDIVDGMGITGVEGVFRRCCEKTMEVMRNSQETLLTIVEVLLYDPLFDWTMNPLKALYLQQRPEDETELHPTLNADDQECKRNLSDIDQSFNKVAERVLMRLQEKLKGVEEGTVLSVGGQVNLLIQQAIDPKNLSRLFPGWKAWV

| SMILES | IC50 (ATM; [1]) [nM] | IC50 (DNA-PK; 20 μM ATP) [nM] | IC50 (ATM; [2]) [nM] | IC50 (DNA-PK; ATP 20 μM) [nM] |
| --- | --- | --- | --- | --- |
| COc1cc([C@H]2C[C@]3(C2)C(=O)N(C)c2cnc4cc(F)c(-c5cnc(OCCNC(C)C)c(NS(C)(=O)=O)c5)cc4c23)ccn1 [Example 432, cis-N-(5-(7′-Fluoro-3-(2-methoxypyridin-4-yl)-3′-methyl-2′-oxo-2′,3′-dihydrospiro[cyclobutane-1,1′-pyrrolo[2,3-c]quinolin]-8′-yl)-2-(2-(isopropylamino)ethoxy)pyridin-3-yl)methanesulfonamide] | 1 to 100 | 1 to 100 |  |  |
| CC(C)NCCOc1ncc(-c2cc3c(cc2F)ncc2c3[C@]3(C[C@H](COC(C)C)C3)C(=O)N2C)cc1NS(C)(=O)=O [Example 410, cis-N-(5-(7′-Fluoro-3-(isopropoxymethyl)-3′-methyl-2′-oxo-2′,3′-dihydrospiro[cyclobutane-1,1′-pyrrolo[2,3-c]quinolin]-8′-yl)-2-(2-(isopropylamino)ethoxy)pyridin-3-yl)methanesulfonamide] | 1 to 100 | < 0.5 |  |  |
| CN1C(=O)C2(CCC2)c2c1cnc1ccc(-c3cnc(N4CC(N(C)C)C4)c(NS(=O)(=O)N(C)C)c3)cc21 [Example 288, 8′-(6-[3-(Dimethylamino)azetidin-1-yl]-5-[(dimethylsulfamoyl)amino]pyridin-3-yl}-3′-methyl-2′,3′-dihydrospiro [cyclobutane-1,1′-pyrrolo[2,3-c]quinoline]-2′-one] |  |  | 1 to 100 | 0.5 to 1 |
| CN(C)CCCOc1ncc(-c2ccc3ncc4c(c3c2)C2(CCC2)C(=O)N4C)cc1NS(=O)(=O)c1cc(Cl)cc(C(F)(F)F)c1 [Example 154, 3-Chloro-N-(2-(3-(dimethylamino)propoxy)-5-(3′-methyl-2′-oxo-2′,3′-dihydrospiro[cyclobutane-1,1′-pyrrolo[2,3-c]quinolin]-8′-yl)pyridin-3-yl)-5-(trifluoromethyl)benzenesulfonamide hydrochloride] |  |  | 1 to 100 | 1 to 100 |
| CN(C)CCCOc1ncc(-c2ccc3ncc4c(c3c2)C2(CCC2)C(=O)N4C)cc1NS(=O)(=O)c1ccc(C(F)(F)F)nc1 [Example 146, N-(2-(3-(Dimethylamino)propoxy)-5-(3′-methyl-2′-oxo-2′,3′-dihydrospiro [cyclobulane-1,1′-pyrrolo[2,3-c]quinolin]-8′-yl)pyridin-3-yl)-6-(trifluoromethyl)pyridine-3-sulfonamide hydrochloride] |  |  | 1 to 100 | 1 to 100 |
| CN(C)CCCOc1ncc(-c2ccc3ncc4c(c3c2)C2(CC2)C(=O)N4C)cc1NS(=O)(=O)C1CCC1 [Example 69, N-(2-(3-(Dimethylamino)propoxy)-5-(3′-methyl-2′-oxo-2′,3′-dihydrospiro[cyclopropane-1,1′-pyrrolo[2,3-c]quinolin]-8′-yl)pyridin-3-yl)cyclobutanesulfonamide] |  |  | 1 to 100 | 1 to 100 |
| CN1CCCC(COc2ncc(-c3ccc4ncc5c(c4c3)C3(CC3)C(=O)N5C)cc2NS(=O)(=O)C2CC2)C1 (stereo not drawn) [Example 86, N-(5-(3′-Methyl-2′-oxo-2′,3′-dihydrospiro[cyclopropane-1,1′-pyrrolo[2,3-c]quinolin]-8′-yl)-2-((1-methylpiperidin-3-yl)methoxy)pyridin-3-yl)cyclopropanesulfonamide] |  |  | 1 to 100 | 1 to 100 |
| COc1ncc(-c2ccc3ncc4c(c3c2)C2(COC2)C(=O)N4C)cc1NS(=O)(=O)c1ccccc1 [Example 8, N-(2-Methoxy-5-(3′-methyl-2′-oxo-2′,3′-dihydrospiro[oxetane-3,1′-pyrrolo[2,3-c]quinolin]-8′-yl)pyridin-3-yl)benzenesulfonamide] |  |  | 1 to 100 | < 0.5 |
| COc1ccc([C@H]2C[C@@]3(C2)C(=O)N(C)c2cnc4cc(F)c(-c5cnc(OCCNC(C)C)c(NS(C)(=O)=O)c5)cc4c23)cn1 [Example 431, trans-N-(5-(7′-Fluoro-3-(6-methoxypyridin-3-yl)-3′-methyl-2′-oxo-2′,3′-dihydrospiro[cyclobutane-1,1′-pyrrolo[2,3-c]quinolin]-8′-yl)-2-(2-(isopropylamino)ethoxy)pyridin-3-yl)methanesulfonamide] | > 100 | > 100 |  |  |
| CN(C)CCCOc1ncc(-c2ccc3ncc4c(c3c2)C2(CC2)C(=O)N4C)cc1NS(=O)(=O)c1ccccc1OC(F)(F)F [Example 116] |  |  | 0.5 to 1 | 0.5 to 1 |
| CC(C)NCCOc1ncc(-c2cc3c(cc2F)ncc2c3[C@]3(C[C@H](c4ccncc4)C3)C(=O)N2C)cc1NS(C)(=O)=O [Example 438] | 1 to 100 | 1 to 100 |  |  |
| CN(C)CCCNc1ncc(-c2ccc3ncc4c(c3c2)C2(CC2)C(=O)N4C)cn1 [Example 70, 8′-(2-((3-(Dimethylamino)propyl)amino)pyrimidin-5-yl)-3′-methylspiro[cyclopropane-1,1′-pyrrolo[2,3-c]quinolin]-2′(3′-H)-one] |  |  | 1 to 100 | 1 to 100 |
| CN(C)CCCOc1ncc(-c2ccc3ncc4c(c3c2)C2(CC2)C(=O)N4C)cc1NS(=O)(=O)c1ccccc1 [Example 4, N-(2-(3-(Dimethylamino)propoxy)-5-(3′-methyl-2′-oxo-2′,3′-dihydrospiro[cyclopropane-1,1′-pyrrolo[2,3-c]quinolin]-8′-yl)pyridin-3-yl)benzenesulfonamide] |  |  | < 0.5 | < 0.5 |
| CN1C(=O)C2(CCC2)c2c1cnc1ccc(-c3cnc(OCCCN4CCCC4)c(NS(=O)(=O)c4ccccc4)c3)cc21 [Example 232, N-(5-(3′-Methyl-2′-oxo-2′,3′-dihydrospiro[cyclobutane-1,1′-pyrrolo[2,3-c]quinolin]-8′-yl)-2-(3-(pyrrolidin-1-yl)propoxy)pyridin-3-yl)benzenesulfonamide] |  |  | 1 to 100 | 0.5 to 1 |
| CC(C)NCCOc1ncc(-c2cc3c(cc2F)ncc2c3[C@]3(C[C@H](Cc4ccccc4)C3)C(=O)N2C)cc1NS(C)(=O)=O [Example 451, cis-N-(5-(3-Benzyl-7′-fluoro-3′-methyl-2′-oxo-2′,3′-dihydrospiro[cyclobutane-1,1′-pyrrolo[2,3-c]quinolin]-8′-yl)-2-(2-(isopropylamino)ethoxy)pyridin-3-yl)methanesulfonamide] | 1 to 100 | 1 to 100 |  |  |
| CN(C)CCCOc1ncc(-c2ccc3ncc4c(c3c2)C2(CCOCC2)C(=O)N4C)cc1NS(=O)(=O)c1ccccc1 [Example 33, N-(2-(3-(Dimethylamino)propoxy)-5-(3′-methyl-2′-oxo-2,2′,3′-,3′-,5,6-hexahydrospiro[pyran-4,1′-pyrrolo[2,3-c]quinolin]-8′-yl)pyridin-3-yl)benzenesulfonamide] |  |  | 1 to 100 | 1 to 100 |
| COc1ccc(S(=O)(=O)Nc2cc(-c3ccc4ncc5c(c4c3)C3(CC3)C(=O)N5C)cnc2OCCCN(C)C)cc1 [Example 93, N-(2-(3-(Dimethylamino)propoxy)-5-(3′-methyl-2′-oxo-2′,3′-dihydrospiro [cyclopropane-1,1′-pyrrolo[2,3-c]quinolin]-8′-yl)pyridin-3-yl)-4-methoxybenzenesulfonamide] |  |  | 1 to 100 | < 0.5 |
| CN(C)CCCOc1ncc(-c2ccc3ncc4c(c3c2)C2(CCCC2)C(=O)N4C)cc1NS(=O)(=O)c1ccccc1 [Example 2, N-(2-(3-(Dimethylamino)propoxy)-5-(3′-methyl-2′-oxo-2′,3′-dihydrospiro[cyelopentane-1,1′-pyrrolo[2,3-c]quinolin]-8′-yl)pyridin-3-yl) benzenesulfonamide] |  |  | 1 to 100 | 1 to 100 |
